Assay results taken from ChEMBL document CHEMBL1156211, “Amide-based inhibitors of p38alpha MAP kinase. Part 1: discovery of novel N-pyridyl amide lead molecules” (Bioorg Med Chem Lett, 2010).

These molecules were tested against T1, Mitogen-activated protein kinase 14 (Homo sapiens, UniProt Q16539) (assay: Inhibition of p38alpha assessed as inhibition of gamma-32p-ATP incorporation into biotin peptide substrate after 60 mins by scintillation counter).
T1 sequence (Q16539 whole entry): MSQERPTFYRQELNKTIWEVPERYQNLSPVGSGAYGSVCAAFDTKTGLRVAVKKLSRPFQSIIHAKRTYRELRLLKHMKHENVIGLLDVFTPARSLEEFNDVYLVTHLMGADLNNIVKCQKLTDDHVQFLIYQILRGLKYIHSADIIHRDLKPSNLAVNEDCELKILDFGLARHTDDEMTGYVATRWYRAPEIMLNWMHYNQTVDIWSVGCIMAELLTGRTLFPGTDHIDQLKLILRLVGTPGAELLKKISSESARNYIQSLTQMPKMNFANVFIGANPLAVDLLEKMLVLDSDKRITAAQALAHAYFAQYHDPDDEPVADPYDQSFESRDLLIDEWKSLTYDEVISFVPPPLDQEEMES

| Compound | IC50 [nM] |
| --- | --- |
| C[C@H](Nc1cc(N(Cc2ccc(F)cc2)S(=O)(=O)c2ccc3ccccc3c2)ccn1)c1ccccc1 | 7540 |
| C[C@@H](Nc1cc(N(Cc2ccc(F)cc2)C(=O)c2ccc3ccccc3c2)ccn1)c1ccccc1 | 7800 |
| CC(C)Nc1cc(N(Cc2ccc(F)cc2)C(=O)c2ccc3ccccc3c2)ccn1 | 671 |
| CCN(C(=O)c1ccc2ccccc2c1)c1ccnc(N[C@@H](C)c2ccccc2)c1 | 313 |
| Nc1cc(N(Cc2ccc(F)cc2)C(=O)c2ccc3ccccc3c2)ccn1 | 5080 |
| C[C@H](Nc1cc(N(Cc2ccc(F)cc2)C(=O)c2ccc3ccccc3c2)ccn1)c1ccccc1 | 345 |
| C[C@H](Nc1cc(N(Cc2ccc(F)cc2)C(=O)N2CCC3C=CC=CC3C2)ccn1)c1ccccc1 (stereo not given in full) | 1110 |
| O=C(c1ccc2ccccc2c1)N(Cc1ccc(F)cc1)c1ccnc(NCc2ccccc2)c1 | 1220 |

Second part, the molecule after the results:

| IC50 [nM] | Compound |
| --- | --- |
| 1260 | O=C(c1ccc2ccccc2c1)N(Cc1ccc(F)cc1)c1ccncc1 |
| 589 | C[C@H](Nc1cc(N(Cc2ccc(F)cc2)C(=O)c2ccccc2)ccn1)c1ccccc1 |
| 1110 | O=C(c1ccc2ccccc2c1)N(Cc1ccc(F)cc1)c1ccnc(NC2CCCCC2)c1 |
| 408 | CC(=O)N(Cc1ccc(F)cc1)c1ccnc(N[C@@H](C)c2ccccc2)c1 |

These molecules were tested against T1, Mitogen-activated protein kinase 14 (assay: Inhibition of p38alpha assessed as inhibition of gamma-32p-ATP incorporation into biotin peptide substrate at 1 uM after 60 mins by scintillation counter).

| inhibition [%] | Compound |
| --- | --- |
| 0 | C[C@H](Nc1cc(CN(C(=O)c2ccc3ccccc3c2)c2ccc(F)cc2)ccn1)c1ccccc1 |
| 0 | O=C(c1ccc2ccccc2c1)N(Cc1ccncc1)c1ccc(F)cc1 |
| 0 | C[C@H](Nc1cc(NCc2ccc(F)cc2)ccn1)c1ccccc1 |
